The NIST ThermoML archive (doi:10.1016/j.fluid.2015.04.021)
± gives the expanded uncertainty stated by the source.

Test: cn = amount concentration of the nth substance listed, in mol/dm3
Conditions: 101.3 kPa, Liquid; for viscosity: Falling or rolling sphere viscometry; for mass density: Vibrating tube method

NCCCC[C@H](N)C(=O)[O-].[K+] [potassium L-lysinate] + O
Conditions | mass density [kg/m3] | viscosity [mPa·s]
298.15 K, c1 = 0.2001 | 1010.5 ± 8 | 1.003 ± 0.16
298.15 K, c1 = 0.25 | 1017.5 ± 8 | 1.008 ± 0.16
298.15 K, c1 = 0.5 | 1028.2 ± 8 | 1.29 ± 0.21
298.15 K, c1 = 0.75 | 1043.2 ± 8 | 1.348 ± 0.22
298.15 K, c1 = 1.008 | 1056 ± 8 | 1.575 ± 0.25
298.15 K, c1 = 1.529 | 1084.8 ± 8 | 2.286 ± 0.37
298.15 K, c1 = 1.79 | 1111 ± 8 | 3.236 ± 0.52
298.15 K, c1 = 2 | 1121.6 ± 8 | 3.564 ± 0.57
298.15 K, c1 = 2.5 | 1141.9 ± 8 | 5.406 ± 0.87
298.15 K, c1 = 3 | 1151 ± 8.1 | 8.407 ± 1.3
303.15 K, c1 = 0.2001 | 1009 ± 8 | 0.8978 ± 0.14
303.15 K, c1 = 0.25 | 1016 ± 8 | 0.9023 ± 0.14
303.15 K, c1 = 0.5 | 1027.1 ± 8 | 1.158 ± 0.19
303.15 K, c1 = 0.75 | 1041.4 ± 8 | 1.2 ± 0.19
303.15 K, c1 = 1.008 | 1054.1 ± 8 | 1.397 ± 0.22
303.15 K, c1 = 1.529 | 1082.7 ± 8 | 2.007 ± 0.32
303.15 K, c1 = 1.79 | 1108.6 ± 8 | 2.805 ± 0.45
303.15 K, c1 = 2 | 1119.1 ± 8 | 3.054 ± 0.49
303.15 K, c1 = 2.5 | 1139.1 ± 8 | 4.597 ± 0.74
303.15 K, c1 = 3 | 1148.3 ± 8.1 | 7.027 ± 1.1
308.15 K, c1 = 0.2001 | 1007.3 ± 8 | 0.8095 ± 0.13
308.15 K, c1 = 0.25 | 1014.2 ± 8 | 0.8125 ± 0.13
308.15 K, c1 = 0.5 | 1025.2 ± 8 | 1.045 ± 0.17
308.15 K, c1 = 0.75 | 1039.5 ± 8 | 1.075 ± 0.17
308.15 K, c1 = 1.008 | 1052 ± 8 | 1.247 ± 0.2
308.15 K, c1 = 1.529 | 1080.4 ± 8 | 1.774 ± 0.28
308.15 K, c1 = 1.79 | 1106 ± 8 | 2.454 ± 0.39
308.15 K, c1 = 2 | 1116.5 ± 8 | 2.676 ± 0.43
308.15 K, c1 = 2.5 | 1136.4 ± 8 | 3.95 ± 0.63
308.15 K, c1 = 3 | 1145.5 ± 8.1 | 5.946 ± 0.95
313.15 K, c1 = 0.2001 | 1005.4 ± 8 | 0.7344 ± 0.12
313.15 K, c1 = 0.25 | 1012.3 ± 8 | 0.7377 ± 0.12
313.15 K, c1 = 0.5 | 1023.2 ± 8 | 0.9512 ± 0.15
313.15 K, c1 = 0.75 | 1037.3 ± 8 | 0.9697 ± 0.16
313.15 K, c1 = 1.008 | 1049.8 ± 8 | 1.121 ± 0.18
313.15 K, c1 = 1.529 | 1077.9 ± 8 | 1.581 ± 0.25
313.15 K, c1 = 1.79 | 1103.4 ± 8 | 2.173 ± 0.35
313.15 K, c1 = 2 | 1113.8 ± 8 | 2.358 ± 0.38
313.15 K, c1 = 2.5 | 1133.5 ± 8 | 3.433 ± 0.55
313.15 K, c1 = 3 | 1142.6 ± 8.1 | 5.094 ± 0.82
318.15 K, c1 = 0.2001 | 1003.3 ± 8 | 0.6711 ± 0.11
318.15 K, c1 = 0.25 | 1010.2 ± 8 | 0.6737 ± 0.11
318.15 K, c1 = 0.5 | 1021 ± 8 | 0.866 ± 0.14
318.15 K, c1 = 0.75 | 1035.1 ± 8 | 0.8813 ± 0.14
318.15 K, c1 = 1.008 | 1047.5 ± 8 | 1.014 ± 0.16
318.15 K, c1 = 1.529 | 1075.4 ± 8 | 1.418 ± 0.23
318.15 K, c1 = 1.79 | 1100.8 ± 8 | 1.934 ± 0.31
318.15 K, c1 = 2 | 1111 ± 8 | 2.116 ± 0.34
318.15 K, c1 = 2.5 | 1130.6 ± 8 | 3.008 ± 0.48
318.15 K, c1 = 3 | 1139.7 ± 8 | 4.407 ± 0.71
323.15 K, c1 = 0.2001 | 1001.1 ± 8 | 0.6168 ± 0.099
323.15 K, c1 = 0.25 | 1007.9 ± 8 | 0.6185 ± 0.099
323.15 K, c1 = 0.5 | 1018.6 ± 8 | 0.796 ± 0.13
323.15 K, c1 = 0.75 | 1032.7 ± 8 | 0.804 ± 0.13
323.15 K, c1 = 1.008 | 1045 ± 8 | 0.9223 ± 0.15
323.15 K, c1 = 1.529 | 1072.8 ± 8 | 1.28 ± 0.21
323.15 K, c1 = 1.79 | 1098.1 ± 8 | 1.735 ± 0.28
323.15 K, c1 = 2 | 1108.1 ± 8 | 1.916 ± 0.31
323.15 K, c1 = 2.5 | 1127.6 ± 8 | 2.659 ± 0.43
323.15 K, c1 = 3 | 1136.7 ± 8 | 3.852 ± 0.62
328.15 K, c1 = 0.2001 | 998.6 ± 8 | 0.5697 ± 0.091
328.15 K, c1 = 0.25 | 1005.4 ± 8 | 0.5705 ± 0.091
328.15 K, c1 = 0.5 | 1016.2 ± 8 | 0.7351 ± 0.12
328.15 K, c1 = 0.75 | 1030.1 ± 8 | 0.7388 ± 0.12
328.15 K, c1 = 1.008 | 1042.4 ± 8 | 0.8431 ± 0.14
328.15 K, c1 = 1.529 | 1070.1 ± 8 | 1.162 ± 0.19
328.15 K, c1 = 1.79 | 1095.2 ± 8 | 1.566 ± 0.25
328.15 K, c1 = 2 | 1105.2 ± 8 | 1.757 ± 0.28
328.15 K, c1 = 2.5 | 1124.6 ± 8 | 2.368 ± 0.38
328.15 K, c1 = 3 | 1133.7 ± 8 | 3.394 ± 0.54
333.15 K, c1 = 0.2001 | 995.6 ± 8 | 0.5292 ± 0.085
333.15 K, c1 = 0.25 | 1002.8 ± 8 | 0.5294 ± 0.085
333.15 K, c1 = 0.5 | 1013.7 ± 8 | 0.6833 ± 0.11
333.15 K, c1 = 0.75 | 1027.5 ± 8 | 0.6798 ± 0.11
333.15 K, c1 = 1.008 | 1039.7 ± 8 | 0.7748 ± 0.12
333.15 K, c1 = 1.529 | 1067.2 ± 8 | 1.061 ± 0.17
333.15 K, c1 = 1.79 | 1092.3 ± 8 | 1.421 ± 0.23
333.15 K, c1 = 2 | 1102.2 ± 8 | 1.621 ± 0.26
333.15 K, c1 = 2.5 | 1121.5 ± 8 | 2.136 ± 0.34
333.15 K, c1 = 3 | 1130.6 ± 8 | 3.012 ± 0.48
338.15 K, c1 = 0.2001 | 993.4 ± 8 | 0.4937 ± 0.079
338.15 K, c1 = 0.25 | 1002.8 ± 8 | 0.4939 ± 0.079
338.15 K, c1 = 0.5 | 1011 ± 8 | 0.6409 ± 0.1
338.15 K, c1 = 0.75 | 1024.7 ± 8 | 0.629 ± 0.1
338.15 K, c1 = 1.008 | 1036.9 ± 8 | 0.7155 ± 0.11
338.15 K, c1 = 1.529 | 1064.3 ± 8 | 0.9729 ± 0.16
338.15 K, c1 = 1.79 | 1089.3 ± 8 | 1.296 ± 0.21
338.15 K, c1 = 2 | 1099.1 ± 8 | 1.501 ± 0.24
338.15 K, c1 = 2.5 | 1118.3 ± 8 | 1.927 ± 0.31
338.15 K, c1 = 3 | 1127.5 ± 8 | 2.693 ± 0.43
343.15 K, c1 = 0.2001 | 990.6 ± 8 | 0.4633 ± 0.074
343.15 K, c1 = 0.25 | 997.3 ± 8 | 0.463 ± 0.074
343.15 K, c1 = 0.5 | 1008.1 ± 8 | 0.6042 ± 0.097
343.15 K, c1 = 0.75 | 1021.8 ± 8 | 0.5855 ± 0.094
343.15 K, c1 = 1.008 | 1033.9 ± 8 | 0.6637 ± 0.11
343.15 K, c1 = 1.529 | 1061.3 ± 8 | 0.8961 ± 0.14
343.15 K, c1 = 1.79 | 1086.3 ± 8 | 1.188 ± 0.19
343.15 K, c1 = 2 | 1096 ± 8 | 1.435 ± 0.23
343.15 K, c1 = 2.5 | 1115 ± 8 | 1.748 ± 0.28
343.15 K, c1 = 3 | 1124.3 ± 8 | 2.423 ± 0.39
348.15 K, c1 = 0.2001 | 987.7 ± 8 | 0.4359 ± 0.07
348.15 K, c1 = 0.25 | 994.3 ± 8 | 0.4358 ± 0.07
348.15 K, c1 = 0.5 | 1005.2 ± 8 | 0.5715 ± 0.091
348.15 K, c1 = 0.75 | 1018.7 ± 8 | 0.5472 ± 0.088
348.15 K, c1 = 1.008 | 1030.9 ± 8 | 0.6181 ± 0.099
348.15 K, c1 = 1.529 | 1058.2 ± 8 | 0.8306 ± 0.13
348.15 K, c1 = 1.79 | 1083.2 ± 8 | 1.095 ± 0.18
348.15 K, c1 = 2 | 1092.7 ± 8 | 1.346 ± 0.22
348.15 K, c1 = 2.5 | 1111.8 ± 8 | 1.594 ± 0.26
348.15 K, c1 = 3 | 1121.1 ± 8 | 2.208 ± 0.35
